Laboratory results taken from patent publication US20120288533A1, “PROTEIN-POLYSACCHARIDE CONJUGATES AND USE FOR ENCAPSULATING NUTRACEUTICALS FOR CLEAR BEVERAGE APPLICATIONS” (Technion Research and Development Foundation Ltd., priority 2011, published 2012).
One block for each compound: values may come before it.

Experiments:
[1] = Simulated gastric digestion using Nile red (NR adsorption to glass, with and without pepsin); type: in vitro ADME; settings: pepsin:CN mass ratio 1:20, pH 2.5, 2 hrs at 37° C.
Description: NR stock solution in ethanol was prepared at a concentration of 0.16 mg/ml=502.6 μM. NR was added during vortexing to the conjugate, mixture or buffer solution, at a concentration of 1.3 μM, to minimize inner filtering effect in fluorescence measurements.
Free NR in aqueous solution adsorbs to the glass walls, which may serve as a convenient way to study its release behavior from nanocapsules. To examine whether NR adsorbs to glass when in water, NR was added to 1 ml of water in a glass vial to a final concentration of 1.3 μM. The vial was left for 2 hrs, then the water was transferred to a new glass vial, and 1 ml of acetone was added to the new vial. At the same time 2 ml of water:acetone (1:1 vol/vol) solution was added to the first vial. After 1 hr both solutions were read for florescence intensity at ex:570, em:645 which is the intensity peak at water:acetone 1:1. Concentration was calculated from the intensity using a NR in water: acetone (1:1) calibration curve.
Then pepsin was added to some of the samples at a concentration of 0.15 mg/ml, in order to reach pepsin: CN mass ratio of 1:20 according to the method by Mandalari et al.^79. […] After 1 hr the acetone: water solution with NR which had adsorbed to the glass was read for fluorescence intensity (ex:570, em:645). NR fluorescence was measured with time to validate that no bleaching occurred during the procedure (data not shown).

[2] = Particle size distribution by DLS, RPH / RPH-MD samples with and without CLA or VD, with and without homogenization; type: physicochemical; settings: 0.5% ethanol
Description: The conjugate samples were characterized as follows. Two mg/ml (on a protein base) solutions were prepared from the dry heated samples of RPH with and without MD and compared to the unheated control. The RPH-MD powder was dissolved in a pH 7 PBS and stirred overnight for complete hydration. The samples were filtered through 0.45 μm syringe filters (polyvinylidene fluoride, Durapore filter (Millipore, Carrigtwohill, Co. Cork, Ireland).
Additionally, the HN RPH-MD co-assembled particles were analyzed at different concentrations of the VD or CLA.
The dispersion of VD with and without RPH-MD was homogenized by Micro DeBee (Bee International Inc. South Easton Mass., USA) ultra-high pressure homogenizer: process pressure: 20-25 kpsi, Orifice diameter: 0.1 mm. The sample composition was 0.1% protein, 0.5% ethanol, VD concentration 0.02 mg/ml, buffer PBS pH 7. The sample volume subjected to homogenization was 25 ml. The influence of the homogenization process on particles size was evaluated by DLS measurements performed 2 hr after the homogenization.

[3] = Protection of VD against acidic pH treatment (pH 2.5, 2 hr, RT) with RPH-MD, RP-HPLC; type: physicochemical; settings: pH 2.5 for 2 hr at RT; initial VD 0.02 mg/ml, 0.5% ethanol, 0.1% w/w protein
Description: (§1) The protection conferred by the RPH-MD against HN deterioration with time was evaluated. Different shelf life conditions of temperature 4° C. or 23° C. and pH, neutral or acidic, were tested. Neutral pH conditions were obtained by a pH7 PBS. Acidic conditions for CLA were obtained by a pH 3 citric buffer. Acidic conditions (pH 2.5) for VD were obtained by addition of HCl.
(§2) Following the incubation of HN co-assembled samples under the above shelf life conditions, HN extraction was carried out. Then the HN concentration in the samples was quantified using reversed phase HPLC(RP-HPLC), 4.6×100 mm C18-C2 column, on an Akta basic HPLC system equipped with a 3 simultaneous wavelengths UV detector (GE Healthcare, Waukesha, Wis., USA). The volume of the injection loop was 100 μl, and the operation temperature was 24° C.
(§3) The concentration of the vitamin D was 0.02 mg/ml, a high dosage intended for simulating beverage concentrates, which are later diluted during bottling, but must be colloidally and chemically stable. […]
(§4) Vitamin D extraction and HPLC quantification was based on Kazmi et al^57. […] Operating conditions were: ambient temperature (24±1° C.); mobile phase was methanol: acetonitrile: water (49.5:49.5:1 v/v); flow rate was 0.3 ml/min; and the absorbance was measured at 254 nm and 228 nm.

[4] = Shelf life of VD at RT and 4° C. in pH 7 PBS with RPH-MD; type: physicochemical; settings: after 22 days of simulated shelf life at neutral pH and 4° C.; VD 0.02 mg/ml, 0.5% ethanol, 0.1% protein
Description: as §1, §2, §3, §4

[5] = CLA protection under acidic conditions (pH 3, 4° C.) with RPH-MD, RP-HPLC; type: physicochemical; settings: CLA 0.09 mg/ml, 0.5% ethanol, 1% protein
Description: as §1, §2, §3
(§5) To extract CLA, isopropanol (0.5 ml) was added to 0.5 ml sample. […] The separation of CLA was performed with a mobile phase of acetonitrile/water/acetic acid (70/30/0.12, v/v/v) at a flow rate of 1.5 ml/min and CLA was detected at 234 nm, which was found optimal in a spectrum scan (not shown).

[6] = Simulated shelf life of CLA at RT in pH 7 PBS with RPH-MD; type: physicochemical; settings: after 14 days, neutral pH (pH 7 PBS), CLA 0.09 mg/ml, 0.5% ethanol, 1% protein
Description: as §1, §2, §3, §5

Compound: CCN(CC)c1ccc2nc3c4ccccc4c(=O)cc-3oc2c1 [Nile Red (NR), Nile Red]
effect of digestion with pepsin on binding of NR (in words) [1]: did not change the binding of NR to casein peptides

Compound: Vitamin D3 [Vitamin D3 (VD3)]
VD particle size fraction by DLS, without homogenization ([2]; 0.1% protein, 0.02 mg/ml VD, pH 7 PBS): 100-200 nm
residual VD [3]: 50%
residual VD [4]: 28%

CLA particle size by DLS ([2]; CLA in PBS pH 7 or 1% protein solutions, RPH-MD value at CLA 0.05-0.015 μg/ml): a few hundred
residual percentage of CLA ([5]; after 1 day at pH 3.0 and 4° C.): about 20%
residual percentage of CLA ([5]; after 4 days at pH 3.0 and 4° C.): ~0%
residual percentage of CLA [6]: 0%
Compound: conjugated linoleic acid [CLA]
